For one data set, the system named is A2780 cells. Kind of data set: Assessment of synergy via combination index (Chou-Talalay), colony formation. In kind it is cell-based. The conditions noted are these: A2780, at 0.5 or higher fraction of cells affected. As to the method:
(§1) Referring now to clonogenic survival assays, cells were plated in a 6 well (100,000 cells/well) or 24 well (25,000 cells/well) plate, incubated for at least 18 hours and then treated with Pt/etoposide and/or RPA inhibitors. After 48 hours of treatment, the cells were re-plated in 10 cm dishes (500-1000 cells/dish) and incubated for 8-10 days to allow colony formation. Plates were then washed with PBS, fixed with glutaraldehyde (Fisher Scientific) and stained with crystal violet (Acros Organics). The colonies were then counted using an Acolyte Synbiosis colony counter, viability determined versus vehicle controls which were plotted versus drug concentration.
Referring now to Assessment of Synergy via Combination Index, in the combination index studies, the A2780 cells were treated with RPA inhibitor and Pt/etoposide alone as well as the combination of both—the inhibitor and the DNA damaging chemotherapeutic agent. The range of treatment was dependent on the IC50 of each inhibitor/drug. If the IC50 was X, then the cells were treated at a range of X/4 to 3X concentration in a colony formation assay. […]

Data set [1] in a line: Safety and tolerability (body weight) in naive NOD/SCID mice. In kind it is in vivo. The procedure:
Referring now to in vivo analysis of TDRL-551, non-obese diabetic/severe combined immunodeficient mice (NOD/SCID) were obtained from The Jackson Laboratory. All animal studies were conducted under the guidelines of the NIH and were approved by the Institutional Animal Care and Use Committee of Indiana University School of Medicine. Animals were maintained under pathogen-free conditions and a 12-hour light-dark cycle. The safety and tolerability of TDRL-551 was assessed in naïve NOD/SCID mice. Mice were treated IP with increasing concentrations of TDRL-551 in a formulation consisting of 20% DMSO, 10% Tween 80, 70% PBS. Based on preliminary PK analysis and a half-life of ˜7 hours (data not shown) we administered 3 doses per week for two weeks and measured body weight every other day.

Data set [2] in a line: Preliminary pharmacokinetic analysis. The class given is in vivo, mice.
The subject of another data set is A2780 EOC cell line. Kind of data set: Clonogenic survival assay in A2780 cells. The class given is cell-based. Conditions: 48 hours treatment, 1-200 μM, read-out: Cellular IC50. As to the method:
Referring now to cell culture, A2780 cells and A2780/R cells were purchased from Sigma. All other cell lines were from ATCC and routinely tested for mycoplasma contamination. Cells were maintained in RPMI media supplemented with 10% FBS (Atlanta Biological), penicillin and streptomycin. Cultures were incubated at 37° C. in 5% CO2 and sub-cultured 2-3 times per week.
as §1

Data set [3] has as its target full length, heterotrimeric human RPA (fl-RPA) (Homo sapiens (Human), UniProt P27694). Nature of the data set: EMSA for inhibition of RPA-DNA binding activity (full length RPA). As to the method:
Referring to protein purification, full length, heterotrimeric human RPA (fl-RPA) was expressed in E. coli and purified by a three column procedure as previously described (See Patrick S M and Turchi J, Replication Protein A (RPA) Binding to Duplex Cisplatin-damaged DNA Is Mediated through the Generation of Single-stranded DNA. J Biol Chem 1999; 274:14972-8). The DBD-A/B construct was expressed as a SUMO-His6-RPA^181-432 fusion protein. E. coli BL21 (DE3) cells in log growth were induced for 3 hours with 0.5 mM IPTG at 37° C. The cells were lysed in buffer containing 50 mM Tris pH 7.5, 300 mM NaCl, 10% sucrose, 10 mM imidazole, 25 μg/ml lysozyme, 1 μg/ml leupeptin, 1 μg/ml pepstatin and 0.5 mM PMSF. The lysate was loaded onto a Ni-NTA column washed and then incubated overnight with wash buffer containing 3 μg/ml ULP1 protease to cleave the SUMO tag. The cleaved His6-RPA^181-432 was eluted from the Ni-NTA column with elution buffer containing 350 mM imidazole. The His6-RPA was then further purified on a size exclusion column (SEC) to remove the cleaved SUMO tag fragment. The SEC pool was then concentrated and stored at −80° C.
Referring now to Electrophoretic Mobility Shift Assays (“EMSA”), EMSA reactions (20 μL) were performed with 50 nM fl-RPA and 2.5 nM 5′[^32P]-labeled 34-base DNA in buffer containing 20 mM HEPES (pH 7.0), 1 mM DTT, 0.001% NP-40, 100 mM NaCl, 5 mM MgCl2 and 50 μg/ml bovine serum albumin (BSA). Chemical compounds, either purchased from ChemDiv or synthesized in the laboratory, were suspended in DMSO and titrated as detailed in each figure. The DMSO concentration in the reaction mixture was kept constant at or below 5%. RPA was incubated with inhibitor or DMSO control in reaction buffer for 30 minutes before the addition of DNA. Reactions were incubated for 5 minutes at room temperature and products separated via 6% native polyacrylamide gel electrophoresis. The bound and unbound fractions were then quantified by phosphor-imager analysis using ImageQuant software (Molecular Dynamics, CA) and IC50 values calculated by non-linear regression using SigmPlot (Sysat). For EMSA reactions with RPA DBD-A/B, 150 nM DBD-A/B was used and electrophoresis was performed at 4° C. All other conditions were identical to those described for the full length RPA.
A general note: A gel shift assay detects complexes by their altered migration in electrophoresis.

[4] abbreviates: EMSA, RPA incubated with compounds at 1-125 μM, read-out: In vitro IC50.
Setting [5] is: compounds titrated at 1-125 μM, read-out: IC50 calculated from EMSA reactions.

pIC50: −log10 of the molar value. Like-named read-outs stand apart in the source and are kept apart here. Some results are limits rather than exact numbers.

Chain of full length, heterotrimeric human RPA (fl-RPA) (P27694 whole entry, the tested form may be a part): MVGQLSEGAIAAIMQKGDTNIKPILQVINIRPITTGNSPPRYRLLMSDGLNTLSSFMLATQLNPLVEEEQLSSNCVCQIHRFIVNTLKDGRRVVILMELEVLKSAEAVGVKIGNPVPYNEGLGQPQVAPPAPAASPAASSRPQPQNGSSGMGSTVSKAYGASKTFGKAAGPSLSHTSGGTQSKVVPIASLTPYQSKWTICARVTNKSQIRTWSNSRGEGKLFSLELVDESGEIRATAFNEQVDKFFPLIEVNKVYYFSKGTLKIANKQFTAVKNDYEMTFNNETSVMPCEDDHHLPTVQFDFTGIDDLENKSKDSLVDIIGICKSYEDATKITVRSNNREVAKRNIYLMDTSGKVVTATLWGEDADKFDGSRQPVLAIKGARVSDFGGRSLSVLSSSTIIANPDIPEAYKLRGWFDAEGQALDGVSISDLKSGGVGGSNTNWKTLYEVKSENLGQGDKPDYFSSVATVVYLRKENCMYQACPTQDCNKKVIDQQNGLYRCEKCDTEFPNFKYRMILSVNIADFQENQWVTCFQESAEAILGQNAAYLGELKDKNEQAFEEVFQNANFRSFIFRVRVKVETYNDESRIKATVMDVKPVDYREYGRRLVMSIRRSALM
Chain of full length, heterotrimeric human RPA (fl-RPA) (P15927 whole entry partner, the tested form may be a part): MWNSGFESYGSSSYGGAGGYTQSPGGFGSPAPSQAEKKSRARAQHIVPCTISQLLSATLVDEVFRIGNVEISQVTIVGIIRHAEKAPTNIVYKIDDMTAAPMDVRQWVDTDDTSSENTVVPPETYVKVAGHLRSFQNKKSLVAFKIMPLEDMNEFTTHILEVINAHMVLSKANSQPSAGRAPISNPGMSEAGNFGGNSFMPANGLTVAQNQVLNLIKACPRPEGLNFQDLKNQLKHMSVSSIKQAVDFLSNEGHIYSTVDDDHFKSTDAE
Chain of full length, heterotrimeric human RPA (fl-RPA) (P35244 whole entry partner, the tested form may be a part): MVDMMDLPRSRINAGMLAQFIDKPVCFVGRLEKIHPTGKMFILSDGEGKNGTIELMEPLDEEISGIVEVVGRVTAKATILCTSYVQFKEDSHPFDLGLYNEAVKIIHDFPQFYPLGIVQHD

As for `CCOc1ccc2cc(C3CC(c4ccc(I)cc4)=NN3C(=O)CCCC(=O)O)c(Cl)nc2c1` (centres unmarked), the “combination index (CI) with cisplatin” value with A2780 cells is given as less than 1. Besides, the “adverse effects / loss of weight” value in data set [1] (co-treatment with carboplatin, up to 200 mg/kg) is recorded as “no adverse effects or loss of weight”. Further, the body weight change entry is recorded as “no weight loss observed” in data set [1] (intraperitoneal administration up to 200 mg/kg, 3 doses per week for two weeks) and “slight decrease in body weight” in data set [1] (intraperitoneal, 300 mg/kg). The loss of weight in data set [1] (intraperitoneal, 300 mg/kg) was not above 10%. Moreover, the half-life in data set [2] (NOD/SCID, mouse, plasma, preliminary PK analysis) is approximately 7 h. Besides, the plasma concentration achieved in data set [2] (initial pharmacokinetic analysis) is more than 20 µM. Moreover, in the data set on A2780 EOC cell line (Homo sapiens), the negative-log IC50 (pIC50) was 4.60.

For `CCOc1ccc2cc(C3CC(c4ccc(I)cc4)=NN3c3cccc(C(=O)O)c3)c(Cl)nc2c1` (centres unmarked) [NG-01-02], the negative-log IC50 (pIC50) in data set [3] (setting [4]) is 4.12.

Take `CCOc1ccc2cc(C3CC(c4ccc(I)cc4)=NN3c3ccc(C(=O)O)cc3)c(Cl)nc2c1` (centres unmarked) [NG-01-04]: in data set [3] (setting [4]), the pIC50 was less than 4.00.

For the compound `CCOc1ccc2cc(C3CC(c4ccc(I)cc4)=NN3C(=O)CCCCC(=O)O)c(Cl)nc2c1` (centres unmarked) [NG-01-24], in data set [3] (setting [4]), the pIC50 is 5.15.

As for `CCOc1ccc2cc(C3CC(c4ccc(I)cc4)=NN3C(=O)CCCCCC(=O)O)c(Cl)nc2c1` (centres unmarked) [NG-01-25], in data set [3] (setting [4]), the pIC50 is 5.00.

Consider `COc1ccc2cc(C3CC(c4ccc(Br)cc4)=NN3C(=O)CCCC(=O)O)c(Cl)nc2c1` (centres unmarked) [TDRL-533], for which the pIC50 (in data set [3] (setting [4]); with A2780 EOC cell line) was less than 4.30 throughout.

`COc1ccc2cc(C3CC(c4ccc(Br)cc4)=NN3C(=O)CCCCC(=O)O)c(Cl)nc2c1` (centres unmarked) [TDRL-534]: the pIC50 in data set [3] (setting [4]) is 4.46.

Take `COc1ccc2cc(C3CC(c4ccc(F)cc4)=NN3C(=O)CCCCC(=O)O)c(Cl)nc2c1` (centres unmarked) [TDRL-539]: the negative logarithm of the IC50 (pIC50) in data set [3] (setting [4]) is less than 4.00.

Regarding `COc1ccc2cc(C3CC(c4ccc(F)cc4)=NN3C(=O)CCCC(=O)O)c(Cl)nc2c1` (centres unmarked) [TDRL-540], the negative logarithm of the IC50 (pIC50) in data set [3] (setting [4]) was less than 4.00.

As to `CCOc1ccc2cc(C3CC(c4ccc(Br)cc4)=NN3C(=O)CCCCC(=O)O)c(Cl)nc2c1` (centres unmarked) [TDRL-543], the negative-log IC50 (pIC50) is 4.60 in data set [3] (setting [4]) and 4.30 in the data set with A2780 EOC cell line.

Turning to `CC(C)Oc1ccc2cc(C3CC(c4ccc(Br)cc4)=NN3C(=O)CCCCC(=O)O)c(Cl)nc2c1` (centres unmarked) [TDRL-556], in data set [3] (setting [4]), the pIC50 is 4.37.

On to `CCOc1ccc2cc(C3CC(c4ccc(OC(F)(F)F)cc4)=NN3C(=O)CCCCC(=O)O)c(Cl)nc2c1` (centres unmarked) [TDRL-557], for which the pIC50 in data set [3] (setting [4]) is 4.52.

Take `CCOc1ccc2cc(C3CC(c4ccc(Br)nc4)=NN3C(=O)CCC(=O)O)c(Cl)nc2c1` (centres unmarked) [TDRL-617]: the pIC50 in data set [3] (setting [4]) was less than 4.00.

Turning to `CCOc1ccc2cc(C3CC(c4cccc(I)c4)=NN3C(=O)CCCCC(=O)O)c(Cl)nc2c1` (centres unmarked) [TDRL-652], in data set [3] (setting [4]), the pIC50 was 4.82.

Consider `COc1ccc(C2CC(c3ccccc3)=NN2C(=O)CCCC(=O)O)cc1OC` (centres unmarked) [a], for which, in data set [3] (setting [5]), the pIC50 was less than 4.00.

As for `COc1ccc(C2CC(c3ccc(C)cc3)=NN2C(=O)CCCC(=O)O)cc1OC` (centres unmarked) [b], the negative-log IC50 (pIC50) in data set [3] (setting [5]) is less than 4.00.

Regarding `COc1ccc(C2=NN(C(=O)CCCC(=O)O)C(c3ccccc3OC)C2)cc1` (centres unmarked) [c], in data set [3] (setting [5]), the negative logarithm of the IC50 (pIC50) is less than 4.00.

Take `CCOc1ccc2cc(C3CC(c4ccc(Br)cc4)=NN3C(=O)CCCC(=O)O)c(Cl)nc2c1` (centres unmarked) [d]: in data set [3] (setting [5]), the negative logarithm of the IC50 (pIC50) is 4.60.

`CCOc1ccc2cc(C3CC(c4ccc(C)cc4)=NN3C(=O)CCC(=O)O)c(Cl)nc2c1` (centres unmarked) [e]: the negative logarithm of the IC50 (pIC50) in data set [3] (setting [5]) was 4.10.

Turning to `COc1ccc2cc(C3CC(c4ccc(Cl)cc4)=NN3C(=O)CCC(=O)O)c(Cl)nc2c1` (centres unmarked) [f], in data set [3] (setting [5]), the pIC50 was 4.12.

In the case of `COc1ccc(C2=NN(C(=O)CCC(=O)O)C(c3cc4ccc(OC)cc4nc3Cl)C2)cc1` (centres unmarked) [g], in data set [3] (setting [5]), the pIC50 is less than 4.00.

Consider `COc1ccc2cc(C3CC(c4ccc(OC)c(OC)c4)=NN3C(=O)CCC(=O)O)c(Cl)nc2c1` (centres unmarked) [h], for which the negative-log IC50 (pIC50) in data set [3] (setting [5]) is less than 4.00.

On to `COc1ccc2cc(C3CC(c4ccc(C)cc4)=NN3C(=O)CCCC(=O)O)c(Cl)nc2c1` (centres unmarked) [i], for which the pIC50 in data set [3] (setting [5]) is less than 4.00.

As to `COc1ccc2cc(C3CC(c4ccc(Cl)cc4)=NN3C(=O)CCCC(=O)O)c(Cl)nc2c1` (centres unmarked) [j], in data set [3] (setting [5]), the pIC50 was 4.22.

For `COc1ccc2cc(C3CC(c4ccc(OC)c(OC)c4)=NN3C(=O)CCCC(=O)O)c(Cl)nc2c1` (centres unmarked) [k], the pIC50 in data set [3] (setting [5]) is less than 4.00.

In the case of `O=C(O)CCCC(=O)N1N=C(c2ccccc2)CC1c1cc2cc3c(cc2nc1Cl)OCCO3` (centres unmarked) [l], the negative logarithm of the IC50 (pIC50) in data set [3] (setting [5]) was less than 4.00.

Broadly, the half-life is the time in which the quantity being followed falls by half. A high value points to slow decline. For orientation: pIC50 means the negative decadic logarithm of the IC50, by convention in mol/L.

Source of the values: patent US10774063B2, “Materials and method for inhibiting replication protein A and uses thereof” (INDIANA UNIVERSITY RESEARCH AND TECHNOLOGY CORPORATION, priority 2014, dated 2020).
